Data: patent US10906915B2, “Substituted pyrazoloazepin-4-ones and their use as phosphodiesterase inhibitors” (LEO Pharma A/S, priority 2016, dated 2021)

These compounds were tested against human PDE4D catalytic domain (UniProt no. Q08499) (Homo sapiens (Human), UniProt Q08499) (assay: PDE4 assay (TR-FRET, FAM-cAMP cleavage)). Conditions: human PDE4D catalytic domain; molar concentration giving 50% inhibition of substrate cleavage; read-out: PDE4 IC50 range.
Sequence of human PDE4D catalytic domain (Q08499 380-740 limits assumed): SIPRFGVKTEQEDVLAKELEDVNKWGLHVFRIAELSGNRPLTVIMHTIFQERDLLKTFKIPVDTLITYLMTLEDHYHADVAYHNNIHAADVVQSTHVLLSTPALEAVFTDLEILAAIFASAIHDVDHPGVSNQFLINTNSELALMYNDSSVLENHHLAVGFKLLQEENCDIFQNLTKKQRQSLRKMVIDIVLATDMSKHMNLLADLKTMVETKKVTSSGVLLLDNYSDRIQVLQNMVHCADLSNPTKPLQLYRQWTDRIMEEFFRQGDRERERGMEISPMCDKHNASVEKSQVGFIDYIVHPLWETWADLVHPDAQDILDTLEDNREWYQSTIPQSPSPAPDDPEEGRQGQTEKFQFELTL
Type: biochemical
Outline: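 Read-out is time-resolved FRET from Tb donor to FAM-AMP captured on trivalent-metal nanoparticles added to stop the reaction. Substrate was a mix of plain and FAM-labelled cAMP, cleaved by human PDE4D catalytic domain ([…]) with titrated compound; IC50 ranges (nM) versus controls.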
Compound `CCc1nn(C[C@@H](C)COC(=O)c2cc(OC)ccc2F)c2c1C(=O)NCC1(CCOCC1)C2` [Example 191, [(2R)-3-(3-ethyl-4-oxo-spiro[6,8-dihydro-5H-pyrazolo[4,3-c]azepine-7,4′-tetrahydropyran]-1-yl)-2-methyl-propyl] 2-fluoro-5-methoxy-benzoate] has an IC50 of less than 100 nM.
`CCc1nn(CCCOC(=O)CCS(C)(=O)=O)c2c1C(=O)NCC1(CCOCC1)C2` [Example 31, 3-(3-ethyl-4-oxo-spiro[6,8-dihydro-5H-pyrazolo[4,3-c]azepine-7,4′-tetrahydropyran]-1-yl)propyl 3-methylsulfonylpropanoate] showed an IC50 greater than 500 nM.
With `CCc1nn(C[C@@H](C)COC(=O)c2ccccc2S(C)(=O)=O)c2c1C(=O)NCC1(CCOCC1)C2` [Example 214, [(2R)-3-(3-ethyl-4-oxo-spiro[6,8-dihydro-5H-pyrazolo[4,3-c]azepine-7,4′-tetrahydropyran]-1-yl)-2-methyl-propyl] 2-methylsulfonylbenzoate] the IC50 was less than 100 nM.
`CCOc1cccc(C(=O)OCCCn2nc(CC)c3c2CC2(CCOCC2)CNC3=O)c1` [Example 61, 3-(3-ethyl-4-oxo-spiro[6,8-dihydro-5H-pyrazolo[4,3-c]azepine-7,4′-tetrahydropyran]-1-yl)propyl 3-ethoxybenzoate] gave an IC50 of less than 100 nM.
`CCc1nn(CCCOC(=O)C2CC(O)C2)c2c1C(=O)NCC1(CCOCC1)C2` (stereo not shown) [Example 10, 3-(3-ethyl-4-oxo-spiro[6,8-dihydro-5H-pyrazolo[4,3-c]azepine-7,4′-tetrahydropyran]-1-yl)propyl 3-hydroxycyclobutane-carboxylate] showed an IC50 of 100 to 500 nM.
Compound `CCc1nn(CCCOC(=O)c2ccccc2C#N)c2c1C(=O)NCC1(CCOCC1)C2` [Example 25, 3-(3-ethyl-4-oxo-spiro[6,8-dihydro-5H-pyrazolo[4,3-c]azepine-7,4′-tetrahydropyran]-1-yl)propyl 2-cyanobenzoate] has an IC50 of less than 100 nM.
Work on `CCc1nn(CCCOC(=O)c2ccc(C(F)(F)F)c(F)c2)c2c1C(=O)NCC1(CCOCC1)C2` [Example 110, 3-(3-ethyl-4-oxo-spiro[6,8-dihydro-5H-pyrazolo[4,3-c]azepine-7,4′-tetrahydropyran]-1-yl)propyl 3-fluoro-4-(trifluoromethyl)benzoate] yielded an IC50 of less than 100 nM.
`CCc1nn(CCCOC(=O)c2ccc(C(F)(F)F)cc2)c2c1C(=O)NCC1(CCOCC1)C2` [Example 97, 3-(3-ethyl-4-oxo-spiro[6,8-dihydro-5H-pyrazolo[4,3-c]azepine-7,4′-tetrahydropyran]-1-yl)propyl 4-(trifluoromethyl)benzoate] showed an IC50 of less than 100 nM.
`CCc1nn(C[C@@H](C)COC(=O)c2ccc(F)c(C#N)c2)c2c1C(=O)NCC1(CCOCC1)C2` [Example 184, [(2R)-3-(3-ethyl-4-oxo-spiro[6,8-dihydro-5H-pyrazolo[4,3-c]azepine-7,4′-tetrahydropyran]-1-yl)-2-methyl-propyl] 3-cyano-4-fluoro-benzoate] was tested, and the IC50 was less than 100 nM.
`CCc1nn(CCCOC(=O)c2ccccc2Cl)c2c1C(=O)NCC1(CCOCC1)C2` [Example 40, 3-(3-ethyl-4-oxo-spiro[6,8-dihydro-5H-pyrazolo[4,3-c]azepine-7,4′-tetrahydropyran]-1-yl)propyl 2-chlorobenzoate] gave an IC50 of less than 100 nM.
`CCc1nn(C[C@@H](C)COC(=O)c2cccc(S(=O)(=O)CC)c2)c2c1C(=O)NCC1(CCOCC1)C2` [Example 226, [(2R)-3-(3-ethyl-4-oxo-spiro[6,8-dihydro-5H-pyrazolo[4,3-c]azepine-7,4′-tetrahydropyran]-1-yl)-2-methyl-propyl] 3-ethylsulfonylbenzoate] gave an IC50 of less than 100 nM.
With `CCc1nn(CCCOC(=O)c2cc(C(F)(F)F)ccc2C)c2c1C(=O)NCC1(CCOCC1)C2` [Example 105, 3-(3-ethyl-4-oxo-spiro[6,8-dihydro-5H-pyrazolo[4,3-c]azepine-7,4′-tetrahydropyran]-1-yl)propyl 2-methyl-5-(trifluoromethyl)benzoate] the IC50 was less than 100 nM.
For `CCc1nn(C[C@@H](C)COC(=O)C2CCCC2)c2c1C(=O)NCC1(CCOCC1)C2` [Example 161, [(2R)-3-(3-ethyl-4-oxo-spiro[6,8-dihydro-5H-pyrazolo[4,3-c]azepine-7,4′-tetrahydropyran]-1-yl)-2-methyl-propyl] cyclopentanecarboxylate], the IC50 was less than 100 nM.

Same assay, conditions: read-out: PDE4 IC50 range
Work on `CCc1nn(CCCCOC(=O)c2ccc(C(=O)NC)cc2)c2c1C(=O)NCC1(CCOCC1)C2` [Example 379, 4-(3-ethyl-4-oxo-spiro[6,8-dihydro-5H-pyrazolo[4,3-c]azepine-7,4′-tetrahydropyran]-1-yl)butyl 4-(methylcarbamoyl)benzoate] yielded an IC50 of 100 to 500 nM.
With `CCc1nn(CC(C)(C)COC(=O)c2ccc(C(=O)N3CCNCC3)cc2)c2c1C(=O)NCC1(CCOCC1)C2` [Example 335, [3-(3-ethyl-4-oxo-spiro[6,8-dihydro-5H-pyrazolo[4,3-c]azepine-7,4′-tetrahydropyran]-1-yl)-2,2-dimethyl-propyl] 4-(piperazine-1-carbonyl)benzoate] the IC50 was less than 100 nM.
For `CCc1nn(CC2(COC(=O)c3ccccc3)COC2)c2c1C(=O)NCC1(CCOCC1)C2` [Example 356, [3-[(3-ethyl-4-oxo-spiro[6,8-dihydro-5H-pyrazolo[4,3-c]azepine-7,4′-tetrahydropyran]-1-yl)methyl]oxetan-3-yl]methyl benzoate], the IC50 was less than 100 nM.
Compound `CCc1nn(CCCCOC(=O)c2ccc(C(=O)N(C)C)cc2)c2c1C(=O)NCC1(CCOCC1)C2` [Example 380, 4-(3-ethyl-4-oxo-spiro[6,8-dihydro-5H-pyrazolo[4,3-c]azepine-7,4′-tetrahydropyran]-1-yl)butyl 4-(dimethylcarbamoyl)benzoate] has an IC50 of 100 to 500 nM.
`CCc1nn(CC(C)(C)COC(=O)c2cccc(C#N)c2)c2c1C(=O)NCC1(CCOCC1)C2` [Example 287, [3-(3-ethyl-4-oxo-spiro[6,8-dihydro-5H-pyrazolo[4,3-c]azepine-7,4′-tetrahydropyran]-1-yl)-2,2-dimethyl-propyl] 3-cyanobenzoate] gave an IC50 of less than 100 nM.
In the case of `CCc1nn(C[C@@H](C)COC(=O)c2cccc(C(=O)N3CCCC3)c2)c2c1C(=O)NCC1(CCOCC1)C2` [Example 268, [(2R)-3-(3-ethyl-4-oxo-spiro[6,8-dihydro-5H-pyrazolo[4,3-c]azepine-7,4′-tetrahydropyran]-1-yl)-2-methyl-propyl] 3-(pyrrolidine-1-carbonyl)benzoate], the IC50 is reported as less than 100 nM.
Compound `CCc1nn(CCCCOC(=O)c2ccc(S(=O)(=O)N3CCOCC3)cc2)c2c1C(=O)NCC1(CCOCC1)C2` [Example 378, 4-(3-ethyl-4-oxo-spiro[6,8-dihydro-5H-pyrazolo[4,3-c]azepine-7,4′-telrahydropyran]-1-yl)butyl 4-morpholinosulfonylbenzoate] has an IC50 of 100 to 500 nM.
In the case of `CCc1nn(C[C@H](C)COC(=O)c2ccc(F)cc2)c2c1C(=O)NCC1(CCOCC1)C2` [Example 277, [(2S)-3-(3-ethyl-4-oxo-spiro[6,8-dihydro-5H-pyrazolo[4,3-c]azepine-7,4′-tetrahydropyran]-1-yl)-2-methyl-propyl] 4-fluorobenzoate], the IC50 is reported as less than 100 nM.
For `CCc1nn(CC(C)(C)COC(=O)c2cccc(C(=O)N3CCCC3)c2)c2c1C(=O)NCC1(CCOCC1)C2` [Example 344, [3-(3-ethyl-4-oxo-Spiro[6,8-dihydro-5H-pyrazolo[4,3-c]azepine-7,4′-tetrahydropyran]-1-yl)-2,2-dimethyl-propyl] 3-(pyrrolidine-1-carbonyl)benzoate], the IC50 was less than 100 nM.
